Data published in US7956040B2, “Combination of catechin and quercetin for pharmaceutical or dietary use” (Giuliani International Limited, priority 2000, dated 2011).

Experiments:
[1] = tested on: platelets; assay: Platelet adhesion to collagen ([3H]oleic acid-labelled platelets); format: cell-based, human; details: 50 μmol of collagen/L [sic]
Method: The activation of platelets by collagen is a multistage process. Thus, after being attached initially to the platelets via the pathways of the second messenger, collagen stimulates the release of thromboxane and ADP, which are important platelet agonists that induce aggregation. To study the adhesion of the platelets to collagen (50 mg/L) without the interference of aggregation and of the activation induced by all the known agonists released by the platelet granules on stimulation by collagen, the platelets were subjected to preincubation with aspirin, a cyclooxygenase inhibitor, with the ADP removal system phosphocreatine and creatine kinase, and with the fibrinogen-fibronectin antagonist RDGS (13).

[2] = tested on: platelets; assay: Cytosol platelet Ca2+ concentration / calcium mobilization (Fura 2) after collagen; format: cell-based, human; details: for decrease in calcium mobilization: 4 mg of collagen/L; for mobilization of calcium (percentage change in intracellular calcium concentration): catechin or quercetin alone
Method: The concentrations of cytosol platelet Ca^2+ were measured using the fluorescent indicator dye Fura 2, according to Grynkiewicz et al.; the changes in fluorescence were then monitored with a fluorimeter SFM 25 (Kontron, Zurich, Switzerland) set at emission wavelength of 510 nm and excitation wavelength of 340 nm.

[3] = tested on: platelet aggregation; details: high concentrations, several literature studies; cited from earlier work
[4] = tested on: platelets; assay: Production of hydrogen peroxide in DCFH-DA-loaded platelets stimulated with collagen (flow cytometry); format: cell-based, human; details: for production of hydrogen peroxide caused by collagen: catechin or quercetin alone, scalar concentrations (Cat 50 and 100, Q 10 and 20 μmol/L), 10 and 20 mg of collagen/L; for formation of hydrogen peroxide caused by collagen: each compound alone at the low quantities (catechin 25 μmol/L; quercetin 5 μmol/L)
Method: (§1) DCFH-DA was added to the PSEC (final concentration: 40 μmol/L); after 15 minutes of incubation with or without catechin or quercetin, the PSEC were activated with collagen. The reaction was stopped with 2 mmol EGTA/L after 1 min. The samples were analysed in a Coulter XL-MCL flow cytometer (Hialeah, Fla.) equipped with an argon laser (emission 480 nm) set up for measuring the logarithmic diffusion of direct light, which is a measure of the dimensions of the particle; logarithmic diffusion of light at 90°, which is a measure of the granularity of the cell; and green fluorescence (DCF) 510-550 nm. The fluorescence signal generated by the probe was expressed as the stimulation index, i.e. intensity of mean channel fluorescence of the stimulated platelets/intensity of mean channel fluorescence of the unstimulated platelets. Platelet aggregation in vitro was evaluated according to Born. The collagen was used at concentrations of 2-4 mg/L.
Flow cytometry makes use of the properties of DCFH-DA, which diffuses rapidly through the cellular membranes and is then trapped inside the cell through a reaction of deacetylation. In the presence of hydrogen peroxide, this compound is oxidized to dichlorofluorescein (DCF), which is highly fluorescent.

[5] = tested on: platelets; assay: Platelet aggregation in vitro caused by collagen (according to Born); format: cell-based, human; details: for influence on platelet aggregation: 25 μmol of catechin/L or 5 μmol of quercetin/L used on their own; for platelet aggregation caused by collagen: catechin or quercetin alone, two concentrations of collagen (2 and 4 mg/L)
Method: as §1, with “The reaction was stopped with 2 mmol EGTA/L after 1 min.” left out

[6] = tested on: platelets; assay: Platelet function / platelet activation, overall conclusion of the study; format: cell-based, human; details: individually at 5 μmol of quercetin/L or 20 μmol of catechin/L (so in the source)
[7] = tested on: phospholipase C; assay: Activation of phospholipase C: IP3 production in collagen-stimulated platelets; details: for decrease in IP3 production: 10 mg of collagen/L; for production of [32P]IP3 in platelets stimulated by collagen: catechin or quercetin alone
Method: Drug-free human blood obtained from healthy volunteers was coagulated with acid:citrate:dextrose. Platelet-rich plasma was centrifuged at 800×g for 20 min at room temperature and the pellet was suspended in a volume equal to half the initial volume of autologous plasma, low in platelets. The platelet suspensions were incubated for 1 h at 37° C. with 3 μmol of Fura 2/AM per L, 40 μmol DCFH-DA/L, 7.4 GBq (2 Ci) ^32Pi/L, or 3.7 MBq (1 mCi) [^3H]oleic acid/L. The platelets were washed by exclusion chromatography on Sepharose 2B using a Ca^2+-free Tyrodes buffer (134 mmol NaCl/L, 2.9 mmol KCl/L, 0.34 mmol Na2HPO4/L and 2 mmol MgCl2/L) containing 0.2% of bovine serum albumin, 5 mmol glucose/L and 10 mmol HEPES/L, pH 7.35.
The production of 1,3,4-inositol triphosphate (IP3, an indicator of activation of phospholipase C, was analysed 30 s after platelet activation according to Pulcinelli et al. J. Chromatogr. 1992,575:51-5. The collagen was used at a concentration of 10 mg/L, which was the lowest concentration capable of inducing a reproducible response. The platelet suspensions identified with [^3H]oleic acid were used for evaluating platelet adhesion to collagen (50 mg/L) according to Smith and Dangelmaier.

[8] = 100 μmol catechin/L or 20 μmol quercetin/L
[9] = catechin (50 and 100 μmol/L) or quercetin (10 and 20 μmol/L) on their own

Molecule | platelet adhesion to collagen [1, 8] | platelet adhesion to collagen [1, 9] | decrease in calcium mobilization ([2]; 20 μmol of quercetin/L) [%] | mobilization of calcium (percentage change in intracellular calcium concentration) [2] | platelet aggregation in vitro [3] | production of hydrogen peroxide caused by collagen [4] | formation of hydrogen peroxide caused by collagen [4] | inhibition of platelet aggregation ([5]; 20 μmol of quercetin/L, 2 mg/L collagen) [%] | inhibition of platelet aggregation ([5]; 20 μmol of quercetin/L, 4 mg/L collagen) [%] | influence on platelet aggregation [5] | platelet aggregation caused by collagen [5] | effect on platelet function [6] | decrease in IP3 production ([7]; 20 μmol of quercetin/L) [%] | production of [32P]IP3 in platelets stimulated by collagen [7] | decrease in calcium mobilization ([2]; 100 μmol of catechin/L) [%] | inhibition of platelet aggregation ([5]; 100 μmol of catechin/L, 2 mg of collagen/L) | inhibition of platelet aggregation ([5]; 100 μmol of catechin/L, 4 mg of collagen/L) | decrease in IP3 production ([7]; 100 μmol of catechin/L) [%]
O=c1c(O)c(-c2ccc(O)c(O)c2)oc2cc(O)cc(O)c12 [quercetin] | suppressed significantly | inhibited platelet adhesion to collagen | 65 | inhibited the mobilization of calcium | inhibit platelet aggregation | inhibited the production of hydrogen peroxide | neither of the two compounds alone at such low quantities is reported to have had any inhibitory effect | 50 | 43 | no influence on platelet aggregation | inhibited platelet aggregation | no effect on platelet function | 93 | inhibited |  |  |  | 
Oc1ccc(C=Cc2cc(O)cc(O)c2)cc1 [resveratrol] |  |  |  |  | inhibit platelet aggregation |  |  |  |  |  |  |  |  |  |  |  |  | 
catechin | suppressed significantly | inhibited platelet adhesion to collagen |  | inhibited the mobilization of calcium | inhibit platelet aggregation | inhibited the production of hydrogen peroxide | neither of the two compounds alone at such low quantities is reported to have had any inhibitory effect |  |  | no influence on platelet aggregation | inhibited platelet aggregation | no effect on platelet function |  | inhibited | 71 | ≈ 75% | ≈ 39% | 50
